Test results published in patent US4808703A, “Novel 3-(4'-aminobutylamino) propylaminobleomycin derivatives” (Zaidan Hojin Biseibutsu Kagaku Kenku Kai, priority 1983, dated 1989).
Where two headings read alike, the source gives them in different places.

Legend:
[1] = test system: Mycobacterium smegmatis ATCC 607; experiment: Antibacterial activity by the agar cylinder plate method, Mycobacterium smegmatis ATCC607; assay type: cell-based; conditions: copper-containing compound, standard bleomycin A2 = 1,000 mcg potency/mg
From the text: (§1) (1) Antibacterial activity against Mycobacterium smegmatis ATCC607 and Bacillus subtilis
(§2) The above activity ws determined by the agar cylinder plate method using the above microorganisms.

Bacillus subtilis = experiment: Antibacterial activity by the agar cylinder plate method, Bacillus subtilis; assay type: cell-based; conditions: copper-containing compound, standard bleomycin A2 = 1,000 mcg potency/mg
From the text: as §1, §2

HeLa S3 cells = experiment: Growth-inhibiting effect on HeLa S3 cell cultured; assay type: cell-based; conditions: 3 days of incubation after addition
Description: (2) Growth-inhibiting effect on HeLa S3 cell cultured
A culture medium (10% calf serum-containing MEM) in a plastic dish was inoculated with HeLa S3 cells, and a bleomycin compound was added 2 days later. Incubation was continued for a further 3 days, and then the number of viable cells was counted. Growth inhibitory rate was calculated from the following equation:
Growth inhibitory rate (%)=100×(B-A)/(B-C)
where A is the final bacterial cell count 3 days after addition of the test sample, B is the final bacterial cell count in the control involving no addition of the test sample, and C is the bacterial cell count at the time of addition of the test sample.
ID50, the concentration producing a growth inhibitory rate of 50%, was estimated from the curve of the concentration of the test sample Vs. the growth inhibitory rate.

ICR mice [2] = conditions: mouse, in vivo
Description: (§3) ICR mice (male, 15-week-old) were used in groups of 10 each. The dose of each test compound was 5 mg/kg injected intraperitoneally once daily for 10 consecutive days. After the administration of the compound was completed, the animals were reared for 5 weeks for observation. Then, the animals were killed and autopsied so that the incidence and grade of pulmonary fibrosis were examined.
(§4) The incidence of pulmonary fibrosis was expressed as the number of mice developing pulmonary fibrosis in the group of mice administered the test compound. The grade of pulmonary fibrosis was expressed as the total score for pulmonary fibrosis divided by the total number of specimens.
(§5) 1 point: Accumulation of exudate in the alveoli, and fibrosis-like changes seen in the alveolar septum.
(§6) 2 points: Fibrosis seen at several sites.
4 points: Sporadic fibrosis.
(§7) 6 points: Extensive fibrosis (fibrosis seen in more than 170 of the total region).
(§8) The ratio in the table represents the ratio of the incidence of the test compound to that of bleomycin complex, or the ratio of the grade of the test compound to that of bleomycin complex.

ICR mice [3] = experiment: Pulmonary toxicity (fibrosis of the lung) in mice; conditions: for Incidence: Number of mice with pulmonary fibrosis/Number of mice in the treatment group / Incidence (%) of pulmonary fibrosis / Grade: Total score for pulmonary fibrosis/Total specimens / Grade of pulmonary fibrosis (total score divided by total number of specimens): 5 mg/kg i.p. once daily for 10 days; for Incidence: Number of mice with pulmonary fibrosis/Number of mice in the treatment group / Incidence (%) of pulmonary fibrosis: autopsy after 5 weeks of observation; for Incidence: Number of mice with pulmonary fibrosis/Number of mice in the treatment group: count; for Incidence (%) of pulmonary fibrosis: percentage in parentheses; for Grade: Total score for pulmonary fibrosis/Total specimens / Grade of pulmonary fibrosis (total score divided by total number of specimens): autopsy after 5 weeks, scores 0, 1, 2, 4, 6 points; for Grade: Total score for pulmonary fibrosis/Total specimens: fraction; for Grade of pulmonary fibrosis (total score divided by total number of specimens): value in parentheses; for Grade ratio: grade of the test compound to that of bleomycin complex; for Incidence ratio: incidence of the test compound to that of bleomycin complex
Description: as §3, §4, §5, §6
4 points: Sporadic fibrosis.
as §7, §8

[4] = test system: Mycobacterium smegmatis ATCC 607; conditions: copper-free bleomycin A2; standard for both Mycobacterium smegmatis ATCC607 and Bacillus subtilis; cited from earlier work

3-(4'-cycloundecanylmethylaminobutylamino)propylaminobleomycin [Compound 7]
Antibacterial titer of copper-compound [1]: 24240 mcg potency/mg
Antibacterial titer of copper-compound (Bacillus subtilis): 7330 mcg potency/mg
ID50 of copper-free compound (concentration producing a growth inhibitory rate of 50%) (HeLa S3 cells): 0.16 µg/mL
Grade ratio (ICR mice [2]): 0.00
Incidence ratio (ICR mice [2]): 0.00
Incidence: Number of mice with pulmonary fibrosis/Number of mice in the treatment group (ICR mice [2]): 0/10

CCCCCCCCCCN(CCCCCCCCCC)CCCCN(CCCCCCCCCC)CCCNC(=O)c1csc(-c2csc(CCNC(=O)C(NC(=O)C(C)C(O)C(C)NC(=O)C(NC(=O)c3nc(C(CC(N)=O)NCC(N)C(N)=O)nc(N)c3C)C(OC3OC(CO)C(O)C(O)C3OC3OC(CO)C(O)C(OC(N)=O)C3O)c3cnc[nH]3)C(C)O)n2)n1 (stereo not drawn) [Compound 8, 3-{N--n-decyl-N--[4'-bis(n-decyl)-aminobutyl]amino}propylaminobleomycin]
Antibacterial titer of copper-compound [1]: 295 mcg potency/mg
Antibacterial titer of copper-compound (Bacillus subtilis): 75 mcg potency/mg
Incidence: Number of mice with pulmonary fibrosis/Number of mice in the treatment group (ICR mice [3]): 0/10
Incidence (%) of pulmonary fibrosis (ICR mice [3]): 0%
Grade: Total score for pulmonary fibrosis/Total specimens (ICR mice [3]): 0/30
Grade of pulmonary fibrosis (total score divided by total number of specimens) (ICR mice [3]): 0
Grade ratio (ICR mice [3]): 0.00
Incidence ratio (ICR mice [3]): 0.00

CCCCCN(CCCCC)CCCCN(CCCCC)CCCNC(=O)c1csc(-c2csc(CCNC(=O)C(NC(=O)C(C)C(O)C(C)NC(=O)C(NC(=O)c3nc(C(CC(N)=O)NCC(N)C(N)=O)nc(N)c3C)C(OC3OC(CO)C(O)C(O)C3OC3OC(CO)C(O)C(OC(N)=O)C3O)c3cnc[nH]3)C(C)O)n2)n1 (stereo not drawn) [Compound 9, 3-{N--n-pentyl-N--[4'-bis(n-pentyl)aminobutyl]amino}propylaminobleomycin]
Antibacterial titer of copper-compound [1]: 57408 mcg potency/mg
Antibacterial titer of copper-compound (Bacillus subtilis): 3520 mcg potency/mg
Incidence: Number of mice with pulmonary fibrosis/Number of mice in the treatment group (ICR mice [3]): 0/10
Incidence (%) of pulmonary fibrosis (ICR mice [3]): 0%
Grade: Total score for pulmonary fibrosis/Total specimens (ICR mice [3]): 0/30
Grade of pulmonary fibrosis (total score divided by total number of specimens) (ICR mice [3]): 0
Grade ratio (ICR mice [3]): 0.00
Incidence ratio (ICR mice [3]): 0.00

Cc1c(N)nc(C(CC(N)=O)NCC(N)C(N)=O)nc1C(=O)NC(C(=O)NC(C)C(O)C(C)C(=O)NC(C(=O)NCCc1nc(-c2nc(C(=O)NCCCN(CCCCN(Cc3ccc(OCc4ccccc4)c(OCc4ccccc4)c3)Cc3ccc(OCc4ccccc4)c(OCc4ccccc4)c3)Cc3ccc(OCc4ccccc4)c(OCc4ccccc4)c3)cs2)cs1)C(C)O)C(OC1OC(CO)C(O)C(O)C1OC1OC(CO)C(O)C(OC(N)=O)C1O)c1cnc[nH]1 (stereo not drawn) [Compound 10, 3-{N-m,p-dibenzyloxybenzyl-N-[4'bis(m,p-dibenzyloxybenzyl)aminobutyl]amino}propylaminobleomycin]
Antibacterial titer of copper-compound [1]: 136 mcg potency/mg
Antibacterial titer of copper-compound (Bacillus subtilis): 6 mcg potency/mg
Incidence: Number of mice with pulmonary fibrosis/Number of mice in the treatment group (ICR mice [3]): 0/10
Incidence (%) of pulmonary fibrosis (ICR mice [3]): 0%
Grade: Total score for pulmonary fibrosis/Total specimens (ICR mice [3]): 0/30
Grade of pulmonary fibrosis (total score divided by total number of specimens) (ICR mice [3]): 0
Grade ratio (ICR mice [3]): 0.00
Incidence ratio (ICR mice [3]): 0.00

Cc1c(N)nc(C(CC(N)=O)NCC(N)C(N)=O)nc1C(=O)NC(C(=O)NC(C)C(O)C(C)C(=O)NC(C(=O)NCCc1nc(-c2nc(C(=O)NCCC[N+](C)(CCCCN(Cc3ccccc3)Cc3ccccc3)Cc3ccccc3)cs2)cs1)C(C)O)C(OC1OC(CO)C(O)C(O)C1OC1OC(CO)C(O)C(OC(N)=O)C1O)c1cnc[nH]1 (stereo not drawn) [Compound 12, 3-[N--methyl-N--benzyl-N--(4'-dibenzyl-aminobutyl)amino]propylaminobleomycin]
Antibacterial titer of copper-compound [1]: 13733 mcg potency/mg
Antibacterial titer of copper-compound (Bacillus subtilis): 832 mcg potency/mg
Incidence: Number of mice with pulmonary fibrosis/Number of mice in the treatment group (ICR mice [3]): 0/10
Incidence (%) of pulmonary fibrosis (ICR mice [3]): 0%
Grade: Total score for pulmonary fibrosis/Total specimens (ICR mice [3]): 0/30
Grade of pulmonary fibrosis (total score divided by total number of specimens) (ICR mice [3]): 0
Grade ratio (ICR mice [3]): 0.00
Incidence ratio (ICR mice [3]): 0.00

Cc1c(N)nc(C(CC(N)=O)NCC(N)C(N)=O)nc1C(=O)NC(C(=O)NC(C)C(O)C(C)C(=O)NC(C(=O)NCCc1nc(-c2nc(C(=O)NCCC[S+](C)C)cs2)cs1)C(C)O)C(OC1OC(CO)C(O)C(O)C1OC1OC(CO)C(O)C(OC(N)=O)C1O)c1cnc[nH]1 (stereo not drawn) [bleomycin A2]
Titer of the standard substance bleomycin A2 [4]: 1,000 mcg potency/mg
